# Paper PMC6216040, “Repurposing of an old drug: In vitro and in vivo efficacies of buparvaquone against Echinococcus multilocularis” (International Journal for Parasitology: Drugs and Drug …, 2018)
# System: E. multilocularis metacestodes
# Experiment: PGI-assay: drug-induced damage on in vitro cultured metacestodes (Pathogen Box screening cascade and EC50)
# Assay type: cell-based, Echinococcus multilocularis
# Conditions: for PGI release, % of the Tx-100 control, 5d / PGI release, % of the Tx-100 control, 12d: 10 µM, singlets; for PGI release, % of the Tx-100 control, 5d / PGI release, % of Tx-100 control, average, 5d: 5 days of incubation; for PGI release, % of the Tx-100 control, 12d / PGI release, % of Tx-100 control, average, 12d: 12 days of incubation
# [1] = confirmatory screening at 10 µM in triplicates, values as % of Tx-100 control
Compound,"PGI release, % of the Tx-100 control, 5d [%]","PGI release, % of the Tx-100 control, 12d [%]",further results
O=C(NC1CC1)c1ccc(N2CCOc3ccc(Cl)cc32)s1 [MMV020537],1.89,0.98,
CC(C)C(NC(=O)Cc1cccc2ccccc12)C(=O)Nc1cccc(C#N)c1 (centres unmarked) [MMV020591],-0.00326,0.72,
Cc1noc(C)c1C(=O)N1CCCC(c2[nH]c3c(C)cccc3c2-c2ccncc2)C1 (centres unmarked) [MMV020623],-0.37,-4.10,
COc1ccc(-c2cncc3ccc(C(=O)NCCCn4ccnc4)nc23)cc1 [MMV020670],0.79,-1.21,
COc1ccc(Cl)cc1NC(=O)CN(C)C(=O)c1cnn(-c2ccccc2)n1 [MMV020710],-1.15,-0.53,
CC(C)(C)c1cc(C(=O)Nc2cccnc2)cc(C(=O)Nc2cccnc2)c1 [MMV020982],1.45,12.41,
"CO/C=C(/C(=O)OC)c1ccccc1Oc1cc(Oc2ccccc2C#N)ncn1 [MMV021057, Azoxystrobin]",-0.65,-0.77,
Cc1cc(NCC(C)C)c2[nH]nc(-c3ccccc3)c2n1 [MMV021375],-3.66,7.43,
Cc1cc(NCCc2ccccc2)nc(NC(=N)Nc2ccc(Cl)cc2)n1 [MMV021660],5.66,4.49,
CN1CCC(NCc2cccc(-c3ccc(S(=O)(=O)NCc4ccccc4)cc3)c2)CC1 [MMV022029],0.43,0.82,
CCN(CC)CCCN1CCN(C(=O)c2cccc(-c3noc(C(F)(F)F)n3)c2)CC1 [MMV022236],-0.66,-2.62,
O=C(Nc1ccc(N2CCNCC2)cc1)c1ccn2ncc(-c3cccc(Cl)c3)c2n1 [MMV022478],20.71,24.08,"PGI release, % of Tx-100 control, average, 5d [1]: 17.77%; PGI release, % of Tx-100 control, average, 12d [1]: 19.68%"
c1ccc2c(c1)CN(CC1CC1)CC1(CCN(Cc3c[nH]c4cnccc34)CC1)O2 [MMV023183],-0.64,-1.24,
Cc1nc(-c2cccc(NCc3ccccc3)c2)[nH]c1C [MMV023227],0.40,0.67,
Nc1nccc2ccc(-c3ccc4nccn4c3)cc12 [MMV023233],-0.34,-0.36,
Nc1ncc(-c2cn[nH]c2)cc1-c1nc2cc(Cl)cnc2[nH]1 [MMV023370],-2.33,-3.72,
O=C(NC1CCN(c2ccnc3ccccc23)C1)c1cccc(C(F)(F)F)c1 (centres unmarked) [MMV023388],-0.73,-1.23,
NS(=O)(=O)c1cccc(-c2ccc3ncc(N4CCOCC4)nc3c2)c1 [MMV023860],-0.05,-0.27,
CC(C)(C)c1cc(C(=O)N2CCN(c3nccnc3C#N)CC2)n(Cc2ccccc2)n1 [MMV023949],-0.59,-1.14,
O=C(Nc1cccc(-c2ccc(NCCCN3CCCC3)nc2)c1)c1ccccc1 [MMV023953],-0.23,-3.47,
c1cncc(NCc2ccc(-c3cc4ccncc4cc3OC3CCNCC3)s2)c1 [MMV023969],-3.87,-3.02,
COc1ccc(-c2cnc3ccc(N4CCCC4)nn23)cc1OC [MMV023985],-0.66,-1.01,
O=C(Nc1ccccc1)c1ccc(-c2cc3ccncc3cc2OC2CCNCC2)s1 [MMV024035],1.01,1.04,
NS(=O)(=O)c1cncc(-c2ccc3nccc(-c4cn[nH]c4)c3n2)c1 [MMV024101],0.37,1.27,
Cc1ccc(S(=O)(=O)n2cc(-c3ccnc(N)c3)c3cc(Br)cnc32)cc1 [MMV024114],3.26,5.70,
CN(C)CCNC(=O)N1CCCN(c2ncnc3cc(-c4ccccc4)sc23)CC1 [MMV024195],1.72,5.34,
Cc1ccc2[nH]c(C3CCCNC3)c(-c3ccncc3)c2c1 (centres unmarked) [MMV024311],-0.16,-1.97,

Compound,"PGI release, % of the Tx-100 control, 5d [%]","PGI release, % of the Tx-100 control, 12d [%]",further results
O=C(NC1CC1)c1ccc(N2CCC(Cc3ccccc3)CC2)nc1 [MMV024397],0.75,37.30,"PGI release, % of Tx-100 control, average, 5d [1]: 0.18%; PGI release, % of Tx-100 control, average, 12d [1]: -0.13%"
O=C(Nc1cccc(Cl)c1)c1cnc(N2CCN(c3ccncc3)CC2)c(Cl)c1 [MMV024406],4.18,4.57,
CN(C(=O)c1cc2c(-c3cncnc3)cccc2[nH]1)c1ccccc1 [MMV024443],-1.32,3.28,
Cc1cccc(C(=O)Nc2ccnc(N(C)C3CCN(CC(C)C)CC3)c2)c1 [MMV024829],0.62,-0.07,
O=C(Nc1ccc(N2CCNCC2)nc1)c1oc(-c2ccccc2)nc1C(F)(F)F [MMV024937],14.66,18.16,
CS(=O)(=O)c1cccc(-c2cnc3[nH]cc(-c4ccc(CCC(=O)O)cc4)c3c2)c1 [MMV026020],-2.92,-0.12,
Nc1nccc2ccc(Oc3ccncc3)cc12 [MMV026313],-0.49,-0.99,
CCn1ncc2c(NC3CCOCC3)c(CNC(=O)c3ccnn3C)c(C)nc21 [MMV026356],-0.13,0.36,
OCc1ccc(-c2cncc(Nc3cccc(Cl)c3)c2)cc1 [MMV026468],9.97,54.98,"PGI release, % of Tx-100 control, average, 5d (1 µM, triplicates): 0.57%; PGI release, % of Tx-100 control, average, 12d (1 µM, triplicates): -1.50%; activity in the screen at 10 μM (confirmed in triplicates, >20% relative PGI release) (10 μM, 5 and 12 days): active; PGI release, % of Tx-100 control, average, 5d [1]: 0.62%; PGI release, % of Tx-100 control, average, 12d [1]: 52.89%"
O=C(NCCc1ccccc1)c1cc(-c2cccnc2)cnc1NCC1CC1 [MMV026490],-0.0463,-0.43,
CC(C)(C)CN1C(=O)C(c2ccccc2)(c2ccccc2)N=C1N [MMV026550],3.21,3.61,
OCCc1ccc(Nc2nccc(-c3nnc4ccccn34)n2)cc1 [MMV028694],1.98,1.79,
CC(C)(CN)c1nc(-c2ccc(Cl)c(O)c2)c(-c2ccnc(N)n2)[nH]1 [MMV030734],-0.31,-0.25,
CNC(=O)C1Cc2c([nH]c3cc(Cl)ccc23)C2(CCN(CCc3ccccc3)CC2)N1 (centres unmarked) [MMV031011],4.51,91.49,"PGI release, % of Tx-100 control, average, 5d [1]: -0.91%; PGI release, % of Tx-100 control, average, 12d [1]: -1.45%"
FC(F)(F)c1cccc(-c2nc3c(NCc4ccncc4)nccc3[nH]2)c1 [MMV032967],0.25,-2.81,
O=C1COCc2ccc(Br)cc2N1Cc1ccc(C(F)(F)F)cc1 [MMV032995],0.37,1.79,
c1ccc(Oc2ccc(-c3cc(N4CCOCC4)n[nH]3)cc2)cc1 [MMV045105],-0.42,0.07,
COc1cc(C(F)(F)F)nc2ccc(C)c(N)c12 [MMV047015],-0.69,-0.79,
N#Cc1ccc(-c2ccc(OCC(N)=O)cc2)cc1 [MMV053220],-4.06,-1.40,
CC(=O)N1CCc2cc3nc(C)cc(C)c3cc21 [MMV054312],0.77,-0.65,
Cc1cc(C)nc(-n2nc(C)cc2Nc2ccccc2)n1 [MMV062221],-5.83,1.28,
Cc1nn(Cc2ccccc2)c(Cl)c1C(=O)NC1CCCCCC1 [MMV063404],0.0181,0.28,
FC(F)(F)c1nnc2ccc(Cl)nn12 [MMV069458],-0.54,0.02,
O=C1N(Cc2cc3ccccc3s2)CC2CN(Cc3ccccc3)CCN12 (centres unmarked) [MMV084603],-3.64,0.62,
O=C(Nc1cnc2ccccc2c1)c1cccc(-n2cnnn2)c1 [MMV084864],-2.18,-3.92,
COc1cncc(-c2cncc(N3CCN(c4ccncc4)CC3)n2)c1 [MMV085071],0.27,0.48,
O=C(C(Cc1c[nH]c2ccccc12)NS(=O)(=O)c1ccc(Cl)cc1)N1CCCCC1 (centres unmarked) [MMV085210],-0.40,0.0121,
